According to patent US8383690B2, “Pharmaceutical composition useful for the treatment of peptic ulcer diseases” (Council of Scientific and Industrial Research, priority 2006, dated 2013):
Values after ≈ are worked out from the molar mass of the structure shown. Read-outs that look alike come from different tables or passages of the source. Each block holds one molecule with its values, some of them ahead of it.

What was measured:
K. pneumoniae = assay: Antibacterial microbroth dilution assay in Muller Hinton broth (NCCLS); assay type: cell-based; details: Klebsiella pneumoniae, gram negative
From the text: (§1) Further, the antibacterial activity of oenothein C was examined against four aerobic bacteria (1 gram positive, B. cereus and 3 gram negative, S. typhi, E. coli & K. pneumoniae) by microbroth dilution assay in Muller Hinton broth essentially by following NCCLS (National Commmittee for Clinical Laboratory Standards) guideline.

E. coli = assay: as above; assay type: cell-based; details: Escherichia coli, gram negative
From the text: as §1

S. typhi = assay: as above; assay type: cell-based; details: Salmonella enterica
From the text: as §1

B. cereus = assay: as above; assay type: cell-based; details: Bacillus cereus, gram positive
From the text: as §1

Swiss albino mice = assay: Toxicity evaluation (mortality) in Swiss albino mice; assay type: in vivo
Description: The compound oenothein C was checked for mortality of the Swiss albino mice.
Maximum dosage of 250 mg/Kg body weight of compound oenothein C was given to 5 swiss albino mice via oral route.

H. pylori [1] = assay: Disc diffusion sensitivity assay against H. pylori; assay type: cell-based, Helicobacter pylori; details: for zone of inhibition at 100 µg/disc / zone of inhibition at 200 µg/disc: Helicobacter pylori, read-out: Inhibition Zone Diameter; for zone of inhibition at 100 µg/disc: 100 μg/disc; for zone of inhibition at 200 µg/disc: 200 μg/disc
Solubility in solvents = assay type: physicochemical; details: methanol, acetone, DMSO
Description: The molecule oenothein C has been isolated from the flowers of the plant Woodfordia fruticosa, abundantly available in the Indian subcontinent. Dried flowers of Woodfordia fruticosa were extracted by soaking overnight with 1:1 methanol-water at room temperature. The process was repeated thrice. The combined extract was evaporated at 45° C. in a rotary evaporator to get the crude extract. This was partitioned between n-butanol and water. The layers were separately evaporated at 45° C. to obtain two fractions. The n-butanol soluble fraction was chromatographed repeatedly over diaion HP-20 and sephadex LH-20 columns following bioassay guided fractionation technique to obtain pure oenothein C as an off-white solid, amorphous in nature.

H. pylori [2] = assay: MIC/MBC by microbroth dilution assay against H. pylori; assay type: cell-based, Helicobacter pylori
gastric H+,K+-ATPase = target: T1, gastric H+,K+-ATPase (Sus scrofa, UniProt P19156); assay: Anti gastric proton pump activity: H+,K+-ATPase inhibition in pig gastric membranes; assay type: biochemical
T1 construct: Pig gastric membranes enriched in apical and tubulovesicular membranes were prepared according to [59]; from tissue; host or cells: pig gastric mucosa membranes (apical and tubulovesicular)
T1 sequence (P19156 whole entry): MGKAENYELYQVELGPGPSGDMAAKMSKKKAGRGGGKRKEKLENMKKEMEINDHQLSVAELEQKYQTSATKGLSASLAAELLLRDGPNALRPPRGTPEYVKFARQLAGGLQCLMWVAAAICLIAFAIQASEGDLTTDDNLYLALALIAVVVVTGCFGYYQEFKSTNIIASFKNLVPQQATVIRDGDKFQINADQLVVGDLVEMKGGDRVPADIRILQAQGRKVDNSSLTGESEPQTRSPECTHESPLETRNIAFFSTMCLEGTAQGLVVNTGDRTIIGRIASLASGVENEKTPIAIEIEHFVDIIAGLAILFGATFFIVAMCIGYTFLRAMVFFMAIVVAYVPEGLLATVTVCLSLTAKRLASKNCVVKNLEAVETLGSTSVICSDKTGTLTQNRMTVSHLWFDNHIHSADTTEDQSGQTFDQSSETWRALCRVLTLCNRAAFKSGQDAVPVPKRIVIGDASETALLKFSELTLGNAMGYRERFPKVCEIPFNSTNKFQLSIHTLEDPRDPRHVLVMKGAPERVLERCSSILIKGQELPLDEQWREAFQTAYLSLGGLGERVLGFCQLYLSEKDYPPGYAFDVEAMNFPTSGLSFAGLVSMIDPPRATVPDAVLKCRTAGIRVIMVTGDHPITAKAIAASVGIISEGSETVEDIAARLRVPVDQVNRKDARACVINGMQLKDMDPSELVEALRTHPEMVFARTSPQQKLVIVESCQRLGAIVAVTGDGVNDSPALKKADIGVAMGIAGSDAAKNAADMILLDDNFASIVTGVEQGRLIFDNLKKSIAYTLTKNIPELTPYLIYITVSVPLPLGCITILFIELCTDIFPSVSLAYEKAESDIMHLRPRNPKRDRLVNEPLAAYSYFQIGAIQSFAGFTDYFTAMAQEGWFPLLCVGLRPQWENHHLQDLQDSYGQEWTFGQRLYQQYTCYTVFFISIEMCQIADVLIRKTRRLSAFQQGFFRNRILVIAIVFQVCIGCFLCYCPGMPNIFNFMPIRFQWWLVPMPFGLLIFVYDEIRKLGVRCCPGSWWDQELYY
T1 sequence (P18434 whole entry partner): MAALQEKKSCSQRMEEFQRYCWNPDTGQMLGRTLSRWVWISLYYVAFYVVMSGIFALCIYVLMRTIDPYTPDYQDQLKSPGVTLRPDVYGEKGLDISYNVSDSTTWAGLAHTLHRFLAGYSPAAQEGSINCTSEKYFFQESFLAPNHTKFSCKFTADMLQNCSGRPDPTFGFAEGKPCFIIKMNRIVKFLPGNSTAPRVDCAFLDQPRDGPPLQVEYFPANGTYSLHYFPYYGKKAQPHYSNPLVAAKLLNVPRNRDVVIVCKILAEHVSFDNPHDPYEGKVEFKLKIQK
Description: Pig gastric membranes enriched in apical and tubulovesicular membranes were prepared according to [59].
The H^+,K^+-ATPase activity was measured at 37° C. in a 1-mL reaction mixture containing 2 mM MgCl2, 2 mM ATP, 10 mM PIPES (pH 6.8), 10 mM KCl and 10-12 μg membrane protein. An otherwise complete assay mixture was preincubated for 10 min in presence and absence of different concentrations of oenothein C or omeprazole before initiating the reaction with ATP. After incubation for 10 min, the reaction was terminated by the addition of 1 mL ice-chilled TCA (14%).
K^+-stimulated activity, referred to as H^+,K^+-ATPase, was calculated as the difference between the activity in presence of Mg plus K^+ and the basal activity (Mg^+-ATPase) in presence of Mg^+ alone. […] Following enzymatic assay method, the inhibitory activity of oenothein C was assessed. The effects are quantitated in terms of percent inhibition of H^+,K^+-ATPase, and compared with that of omeprazole, a specific inhibitor of gastric H^+,K^+-ATPase.

[3] = Helicobacter pylori, ATCC43504, strain ATCC 43504
[4] = Helicobacter pylori, ATCC43504, strain ATCC 43504, read-out: MIC
[5] = Helicobacter pylori, ATCC43629, strain ATCC 43629
[6] = Helicobacter pylori, ATCC43629, strain ATCC 43629, read-out: MIC
[7] = Helicobacter pylori, ATCC49503, strain ATCC 49503
[8] = Helicobacter pylori, ATCC49503, strain ATCC 49503, read-out: MIC
[9] = Helicobacter pylori, NCTC26695, strain NCTC 26695
[10] = Helicobacter pylori, NCTC26695, strain NCTC 26695, read-out: MIC
[11] = Helicobacter pylori, strain 80A
[12] = Helicobacter pylori, strain 80A, read-out: MIC

% Inhibition of H+,K+-ATPase (gastric H+,K+-ATPase; 3 μM): 10-30% | inhibition at 3 µM (gastric H+,K+-ATPase; 3 μM): ~20% | inhibition at 15 µM (gastric H+,K+-ATPase; 15 μM): 40 to 60% | inhibition at 30 µM (gastric H+,K+-ATPase; 30 μM): 80 to 90% | degree of inhibition of the gastric proton pump (gastric H+,K+-ATPase; over 3-30 μM): 10-90%
SMILES: COc1ccc2[nH]c([S+]([O-])Cc3ncc(C)c(OC)c3C)nc2c1 (centres unmarked) [Omeprazole, omeprazole]

activity in the MIC/MBC anti-H. pylori test (H. pylori [2]): did not show any activity | activity in the anti-proton pump test (gastric H+,K+-ATPase): did not show any activity
SMILES: COC(=O)c1cc(O)c(O)c(O)c1 [methyl gallate]
activity in the disc diffusion anti-H. pylori test (H. pylori [1]): did not show any activity

More lines, now with the values behind:

SMILES: O=C(O[C@H]1[C@H](O)[C@@H](CO)OC(O)[C@@H]1OC(=O)c1cc(O)c(O)c(O)c1Oc1cc2c(=O)oc3c(O)c(O)cc4c(=O)oc(c1O)c2c34)c1cc(O)c(O)c(O)c1 (mixture of isomers) [Oenothein C, D-Glucose 2-[2-[(5,10-dihydro-3,7,8-trihydroxy-5,10-dioxo[1]benzopyrano[5,4,3-cde][1]benzopyran-2-yl)oxy]-3,4,5-trihydroxy benzoate]-3-(3,4,5-trihydroxybenzoate)]
MIC (K. pneumoniae): > 400 µg/mL | MIC (E. coli): > 400 µg/mL | MIC (S. typhi): > 400 µg/mL | MIC (B. cereus): > 400 µg/mL | health and behaviour under observation (Swiss albino mice; 250 mg/Kg body weight, oral route, 15 days): found to remain healthy, and no behavioral abnormality were noted | mortality (Swiss albino mice; 250 mg/Kg body weight, oral route, after 24 hours): no mortality | toxic effect (Swiss albino mice; single dose level up to 250 mg/kg body weight): does not show any toxic effect | inhibition zone diameter, range over strains (H. pylori [1]; 100-200 μg/disc, 6 different strains of H. pylori): 1.7-2.5 cm | zone of inhibition at 100 µg/disc (H. pylori [1]; strain 80A): 20 mm | zone of inhibition at 200 µg/disc (H. pylori [1]; strain 80A): 25 mm | zone of inhibition at 100 µg/disc (H. pylori [1]; strain 121A): 17 mm | zone of inhibition at 200 µg/disc (H. pylori [1]; strain 121A): 20 mm | Inhibition Zone Diameter (H. pylori [1]; strain ATCC 43504, 100 μg/disc): 2.0 cm | Inhibition Zone Diameter (H. pylori [1]; strain ATCC 43504, 200 μg/disc): 2.7 cm | Inhibition Zone Diameter (H. pylori [1]; strain ATCC 43629, 100 μg/disc): 1.9 cm | Inhibition Zone Diameter (H. pylori [1]; strain ATCC 43629, 200 μg/disc): 2.3 cm | Inhibition Zone Diameter (H. pylori [1]; strain ATCC 49503, 100 μg/disc): 1.7 cm | Inhibition Zone Diameter (H. pylori [1]; strain ATCC 49503, 200 μg/disc): 2.2 cm | Inhibition Zone Diameter (H. pylori [1]; strain NCTC 26695, 100 μg/disc): 2.0 cm | Inhibition Zone Diameter (H. pylori [1]; strain NCTC 26695, 200 μg/disc): 2.4 cm | solubility (Solubility in solvents): soluble in methanol, acetone and DMSO | fold less competent in respect of metronidazole MIC values (H. pylori [2]; 5 strains): 2-20 fold | MBC (H. pylori [2]; [3]): > 50 µg/mL | MIC (H. pylori [2]; [4]): 25 µg/mL | MBC (H. pylori [2]; [5]): > 50 µg/mL | MIC (H. pylori [2]; [6]): 25 µg/mL | MBC (H. pylori [2]; [7]): 50 µg/mL | MIC (H. pylori [2]; [8]): 6.25 µg/mL | MBC (H. pylori [2]; [9]): 25 µg/mL | MIC (H. pylori [2]; [10]): 12.5 µg/mL | MBC (H. pylori [2]; [11]): 50 µg/mL | MIC (H. pylori [2]; [12]): 25 µg/mL | minimum inhibitory concentration (MIC), range over strains (H. pylori [2]; clinical and standard strains of H. pylori): 6.25 to 25.0 µg/mL | fold less potent as compared with clarithromycin and amoxycillin, based on MIC values (H. pylori [2]; different strains): 500-1000 fold | inhibition at 0.13 µM (gastric H+,K+-ATPase; 0.13 μM): 20 to 30% | inhibition at 0.64 µM (gastric H+,K+-ATPase; 0.64 μM): 50 to 70% | inhibition at 1.3 µM (gastric H+,K+-ATPase; 1.30 μM): 70 to 90% | IC50 (gastric H+,K+-ATPase; concentration range 0.13 to 1.3 μM, read-out: IC50 of gastric proton pump activity in vitro): 600 to 800 nM | degree of inhibition of the gastric proton pump (gastric H+,K+-ATPase; over 0.13-1.30 μM): 20-90% | degree of inhibition of gastric proton pump higher as compared with omeprazole (gastric H+,K+-ATPase; versus omeprazole, identical conditions): about 20 fold

SMILES: CC1(C)S[C@@H]2[C@H](NC(=O)[C@H](N)c3ccc(O)cc3)C(=O)N2[C@H]1C(=O)O [Amoxycillin, amoxycillin]
MBC (H. pylori [2]; [3]): 0.05 µg/mL (≈ 0.137 µM) | MIC (H. pylori [2]; [4]): 0.025 µg/mL (≈ 0.0684 µM) | MBC (H. pylori [2]; [5]): 0.05 µg/mL (≈ 0.137 µM) | MIC (H. pylori [2]; [6]): 0.025 µg/mL (≈ 0.0684 µM) | MBC (H. pylori [2]; [7]): 0.05 µg/mL (≈ 0.137 µM) | MIC (H. pylori [2]; [8]): 0.0125 µg/mL (≈ 0.0342 µM) | MBC (H. pylori [2]; [9]): < 1 µg/mL | MIC (H. pylori [2]; [10]): 0.1 µg/mL (≈ 0.274 µM) | MBC (H. pylori [2]; [11]): 0.08 µg/mL (≈ 0.219 µM) | MIC (H. pylori [2]; [12]): 0.02 µg/mL (≈ 0.0547 µM) | MIC (H. pylori [2]; strain 80A): 0.02 µg/mL (≈ 0.0547 µM) | MIC (H. pylori [2]; strain ATCC 43504): 0.025 µg/mL (≈ 0.0684 µM) | MIC (H. pylori [2]; strain ATCC 43629): 0.025 µg/mL (≈ 0.0684 µM) | MIC (H. pylori [2]; strain ATCC 49503): 0.013 µg/mL (≈ 0.0356 µM) | MIC (H. pylori [2]; strain NCTC 26695): 0.1 µg/mL (≈ 0.274 µM)

SMILES: CC[C@H]1OC(=O)[C@H](C)[C@@H](O[C@H]2C[C@@](C)(OC)[C@@H](O)[C@H](C)O2)[C@H](C)[C@@H](O[C@@H]2O[C@H](C)C[C@H](N(C)C)[C@H]2O)[C@](C)(OC)C[C@@H](C)C(=O)[C@H](C)[C@@H](O)[C@]1(C)O [Clarithromycin, clarithromycin]
Inhibition Zone Diameter (H. pylori [1]; strain 80A, 10 ng/disc): 1.8 (10) cm | Inhibition Zone Diameter (H. pylori [1]; strain 121A, 10 ng/disc): 1.8 (10) cm | Inhibition Zone Diameter (H. pylori [1]; strain ATCC 43504, 40 ng/disc): 2.0 (40) cm | Inhibition Zone Diameter (H. pylori [1]; strain ATCC 43629, 100 ng/disc): 1.7 (100) cm | Inhibition Zone Diameter (H. pylori [1]; strain ATCC 49503, 5 ng/disc): 1.7 (5) cm | Inhibition Zone Diameter (H. pylori [1]; strain NCTC 26695, 400 ng/disc): 2.0 (400) cm | MBC (H. pylori [2]; [3]): 0.05 µg/mL (≈ 0.0668 µM) | MIC (H. pylori [2]; [4]): 0.025 µg/mL (≈ 0.0334 µM) | MBC (H. pylori [2]; [5]): 0.1 µg/mL (≈ 0.134 µM) | MIC (H. pylori [2]; [6]): 0.05 µg/mL (≈ 0.0668 µM) | MBC (H. pylori [2]; [7]): 0.013 µg/mL (≈ 0.0174 µM) | MIC (H. pylori [2]; [8]): 0.00625 µg/mL (≈ 0.00836 µM) | MBC (H. pylori [2]; [9]): 0.1 µg/mL (≈ 0.134 µM) | MIC (H. pylori [2]; [10]): 0.0625 µg/mL (≈ 0.0836 µM) | MBC (H. pylori [2]; [11]): 0.04 µg/mL (≈ 0.0535 µM) | MIC (H. pylori [2]; [12]): 0.02 µg/mL (≈ 0.0267 µM) | MIC (H. pylori [2]; strain 80A): 0.02 µg/mL (≈ 0.0267 µM) | MIC (H. pylori [2]; strain ATCC 43504): 0.025 µg/mL (≈ 0.0334 µM) | MIC (H. pylori [2]; strain ATCC 43629): 0.050 µg/mL (≈ 0.0668 µM) | MIC (H. pylori [2]; strain ATCC 49503): 0.006 µg/mL (≈ 0.00802 µM) | MIC (H. pylori [2]; strain NCTC 26695): 0.063 µg/mL (≈ 0.0842 µM)

SMILES: Cc1ncc([N+](=O)[O-])n1CCO [Metronidazole, metronidazole]
MBC (H. pylori [2]; [3]): 100 µg/mL (≈ 584 µM) | MIC (H. pylori [2]; [4]): 50 µg/mL (≈ 292 µM) | MBC (H. pylori [2]; [5]): 6.25 µg/mL (≈ 36.5 µM) | MIC (H. pylori [2]; [6]): 1.56 µg/mL (≈ 9.11 µM) | MIC (H. pylori [2]; [8]): 1.56 µg/mL (≈ 9.11 µM) | MBC (H. pylori [2]; [9]): 10 µg/mL (≈ 58.4 µM) | MIC (H. pylori [2]; [10]): 1.56 µg/mL (≈ 9.11 µM) | MBC (H. pylori [2]; [11]): > 100 µg/mL
